Some results are limits rather than exact numbers.

In one series the test system is Sprague-Dawley rat. Kind of series: Single dose toxicity in rats. The series is classed as in vivo. The method, then:
The objective of this study was to determine the toxicity and toxicokinetic profile of noribogaine HCl following a single oral (gavage) administration in the Sprague-Dawley rat. A single dose of 100, 300 and 800 mg/kg (achieved with doses of 400 mg/kg 3 h+/−30 min apart because of the limitations of maximum dose formulation concentration). Five male rats/group were used. […] Hypoactivity, vocalization, chewing movements, changes in respiration/posture, salivation, stimuli sensitivity, tremors, twitches and penile erection occurred prior to death. […] The NOAEL was determined to be 100 mg/kg.

Another series deals with Sprague-Dawley rats. Kind of series: Fourteen day repeat dose toxicity in rats. The series is classed as in vivo, rat. The method, then:
This study was conducted to evaluate the toxicity profile of noribogaine-HCl following oral (gavage) administration to the rat for 14 days following Table 2 below:
Male and female Sprague-Dawley rats, 10/sex/group, were administered 0, 25, 50 or 100 mg/kg noribogaine HCl daily by single oral gavage for 14 days. An additional 5 rats/sex/group in the 0 (control) and 100 mg/kg groups were retained for a 28 day recovery period during which no drug was administered. Six rats/sex/group (3 rats/sex controls) were similarly dosed and sampled on study days 1 and 14 for analysis of noribogaine-HCl concentrations in the blood.

In a further series the test system is dogs. Kind of series: Fourteen day repeat dose toxicity in dogs. The series is classed as in vivo, dog. The method, then:
The objective of this study was to determine the toxicity profile of noribogaine HCl given following oral (gavage) administration to dogs for 14 days according to the following Table 3 below:
Noribogaine HCl was administered to groups of 4 male and 4 female dogs by single oral gavage daily for 14 days at doses of 0, 0.5, 1.0 and 5.0 mg/kg/day. An additional group of 4 male and 4 female dogs received either the vehicle control or 5.0 mg/kg/day for 14 days and were held for an additional 28 days after cessation of dosing to assess recovery from any potential drug-induced changes. The study was conducted under GLP guidelines and included comprehensive examinations of clinical signs, body weight, clinical pathology parameters, ophthalmologic examinations, ECG recordings and analyses of plasma for bioanalytical measurement of drug levels at appropriate intervals during the study. At the termination of the dosing phase and at the termination of the recovery phase, all dogs were subjected to a complete post-mortem examination including gross examination of major organs and histologic examination of an extensive list of tissues. Additional sections of brain were obtained from cerebrum, cerebellus, brain stem and spinal cord and examined histologically to evaluate potential effects on brain histopathology. In addition, these sections were examined with immunohistochemical stains for GFAP for evidence of gliosis and Calbindin for a more comprehensive examination of cerebellar Purkinje cells.

Series [1] is described as follows: Human pharmacokinetic study, single oral tablet, fasting healthy volunteers (serum). The note with it: 3 mg, 10 mg, 30 mg or 60 mg single oral tablet. The series is classed as in vivo. The method, then: In double blind studies, fasting healthy volunteers (6 per cohort) were treated once orally with a tablet of noribogaine HCl. In escalating cohorts, the volunteers received 3 mg, 10 mg, 30 mg or 60 mg noribogaine.

Series [2] can be described thus: Pharmacokinetics of noribogaine in healthy male volunteers (plasma, urine, LCMSMS). The note with it: for AUC0-216 / AUC0-∞ / Cmax / Tmax / t1/2: mean (SD), n = 6.
Setting [3] is: glucuronide in plasma after 30 mg noribogaine.
Where [4] appears, read: glucuronide in plasma after 60 mg noribogaine.

Broadly, the NOAEL is the highest dose or exposure tested at which no adverse effect was seen. In the case of `CC[C@@H]1C[C@H]2CC3c4[nH]c5ccc(O)cc5c4CCN(C2)C31.Cl` [noribogaine HCl], the clinical signs result in the series on Sprague-Dawley rat (100 mg/kg single oral) is “did not show any treatment related signs”; with Sprague-Dawley rat (300 mg/kg single oral, persisted until Day 2 in 3/5 rats), “Hypoactivity, vocalization, salivation, stimuli sensitivity, loss of limb function and lying on the cage floor”. Also, in the series with Sprague-Dawley rat (800 mg/kg oral gavage (2 x 400 mg/kg 3 h apart), male rats), the mortality result is on record as “Mortality occurred in all male rats”. Also, the NOAEL is 100 mg/kg with Sprague-Dawley rat (single oral dose, male rats); 100 mg/kg in the series on Sprague-Dawley rats (14 days oral, highest dose tested); 1 mg/kg/day in the series with dogs (14 days oral, based on lacrimal gland changes). For the same molecule, the body weight change with Sprague-Dawley rats (100 mg/kg, females) was −2.6%; in the series with Sprague-Dawley rats (100 mg/kg, males), −5.5%. Further, the food consumption change with Sprague-Dawley rats (100 mg/kg, males and females) is −4.7%. Besides, the “effects on mortality, clinical signs, ophthalmoscopy, hematology, coagulation, clinical chemistry, urinalysis, gross necropsy, histopathology” value in the series on Sprague-Dawley rats (25, 50 or 100 mg/kg daily oral gavage for 14 days) is “no test article-related effects”. In addition, the “brain sections stained for GFAP or Calbindin” value in the series with Sprague-Dawley rats (14 days) was “No treatment-related differences in the brain”. The liver weight result in the series on Sprague-Dawley rats (mid- and high dose groups, considered incidental) is listed as “Minor increases in liver weight”. Further, the “lacrimal gland changes (target tissue)” value with dogs (5 mg/kg/day for 14 days) is “slight to moderate atrophy and degeneration of the acinar cells”. Also, the “lacrimal gland change after recovery” value in the series with dogs (5 mg/kg/day, 28 days off drug) was “clear evidence of regeneration of this lacrimal gland change”. Further, in the series on dogs (0.5, 1.0 and 5.0 mg/kg/day oral for 14 days, dosing or recovery phase), the “clinical observations, body weights, clinical pathology, ophthalmology, ECG, gross lesions” value is reported as “No evidence of adverse effect”. Moreover, the “adverse effects in the trial” value in series [1] is reported as “no clinically relevant adverse effects”.
As to `CC[C@H]1C[C@@H]2C[C@H]3c4[nH]c5ccc(OC6OC(C(=O)O)C(O)C(O)C6O)cc5c4CCN(C2)[C@@H]13` (stereo partly drawn) [Noribogaine glucuronide, noribogaine glucuronide], in series [2] (30 mg and 60 mg noribogaine dose groups, plasma), the “time by which noribogaine glucuronide was detected in all subjects” value is not above 0.75 h. Also, in series [2] (both dose groups (30 mg, 60 mg)), the “proportion of noribogaine glucuronide Cmax and AUC relative to noribogaine” value is 3-4%. In series [2] (setting [3]), the AUC0-216 is reported as 25.7 (9.1) ng · hr/ml, the “AUC0-∞” value is listed as 25.8 (9.3) ng · hr/ml, the Cmax is 1.8 (0.6) ng/ml and the Tmax is 3.0 (0.6) hr. In addition, the t1/2 in series [2] (setting [3]) was 20.6 (4.9) hr. In addition, in series [2] (setting [4]), the AUC0-216 is recorded as 65.0 (21.5) ng · hr/ml, the “AUC0-∞” value is 67.1 (21.9) ng · hr/ml, the Cmax is 4.1 (1.2) ng/ml and the Tmax is 3.8 (1.2) hr. Besides, in series [2] (setting [4]), the t1/2 is 23.1 (3.0) hr. Moreover, the “time of peak concentrations after noribogaine dosing” value in series [2] (glucuronide, 30 mg and 60 mg dose groups, plasma) was in the range of 3 to 4 h. The mean half-life in series [2] (plasma noribogaine glucuronide, 30 mg and 60 mg dose groups) fell in the range of 21 to 23 h.
